Assay results published in ChEMBL document CHEMBL5143582, “Genome-Guided Discovery of Antifungal Filipins from a Deep-Sea-Derived Streptomyces antibioticus” (2022).
In brackets after ≈: the same amount, converted by molar mass.

System: Candida albicans
Assay: Antifungal activity Candida albicans CMCC(F) 98001 assessed as inhibition of fungal growth incubated for 24 hrs by broth micro dilution method
Type: functional

| MIC [µg/mL] | SMILES |
| --- | --- |
| 6.25 (≈ 10.2 µM) | CCCC[C@H]1C(=O)O[C@H](C)[C@@H](O)/C=C/C=C/C=C/C=C/C=C(\C)[C@@H](O)C[C@H](O)C[C@H](O)C[C@H](O)C[C@H](O)C[C@H](O)C[C@@H]1O |
| > 12.5 | C[C@@H]1C/C=C/C=C/C=C/C=C/C=C/[C@@H](O)C[C@H](O)C[C@H](O)C[C@H](O)C[C@H](O)C[C@H](O)C[C@H](O)CC(=O)O1 |
| 1.56 (≈ 2.44 µM) | CCCCCC[C@H]1C(=O)O[C@H](C)[C@@H](O)/C=C/C=C/C=C/C=C/C=C(\C)[C@@H](O)C[C@H](O)C[C@H](O)C[C@H](O)C[C@H](O)C[C@H](O)C[C@@H]1O |
| 3.13 (≈ 5.01 µM) | C\C1=C/C=C/C=C/C=C/C=C/[C@H](O)[C@@H](C)OC(=O)[C@H](CCC(C)C)[C@@H](O)C[C@@H](O)C[C@@H](O)C[C@@H](O)C[C@@H](O)C[C@@H](O)C[C@@H]1O |
| > 12.5 | CC(C)CC[C@H]1C(=O)O[C@H](C)[C@@H](O)/C=C/C=C/C=C/C=C/C=C/[C@@H](O)C[C@H](O)C[C@H](O)C[C@H](O)C[C@H](O)C[C@H](O)C[C@@H]1O |
| > 12.5 | C\C1=C/C=C/C=C/C=C/C=C/[C@H](O)[C@@H](C)OC(=O)C[C@@H](O)C[C@@H](O)C[C@@H](O)C[C@@H](O)C[C@@H](O)C[C@@H](O)C[C@@H]1O |
| > 12.5 | C\C1=C/C=C/C=C/C=C/C=C/C[C@@H](C)OC(=O)C[C@@H](O)C[C@@H](O)C[C@@H](O)C[C@@H](O)C[C@@H](O)C[C@@H](O)C[C@@H]1O |
| 1.56 (≈ 2.44 µM) | C\C1=C/C=C/C=C/C=C/C=C/[C@H](O)[C@@H](C)OC(=O)[C@H](CCCC(C)C)[C@@H](O)C[C@@H](O)C[C@@H](O)C[C@@H](O)C[C@@H](O)C[C@@H](O)C[C@@H]1O |
| 12.5 (≈ 19.1 µM) | CCCCC[C@@H](O)[C@H]1C(=O)O[C@H](C)[C@@H](O)/C=C/C=C/C=C/C=C/C=C(\C)[C@@H](O)C[C@H](O)C[C@H](O)C[C@H](O)C[C@H](O)C[C@H](O)C[C@@H]1O [FILIPIN] |
| > 12.5 | CCCCCC[C@@H]1CC[C@@H](O)C[C@@H](O)C[C@@H](O)C[C@@H](O)C[C@@H](O)C[C@@H](O)C[C@H](O)/C(C)=C/C=C/C=C/C=C/C=C/[C@H](O)[C@@H](C)OC1=O |
| 3.13 (≈ 5.01 µM) | CCCCC[C@H]1C(=O)O[C@H](C)[C@@H](O)/C=C/C=C/C=C/C=C/C=C(\C)[C@@H](O)C[C@H](O)C[C@H](O)C[C@H](O)C[C@H](O)C[C@H](O)C[C@@H]1O |
| > 12.5 | C\C1=C/C=C/C=C/C=C/C=C/C[C@@H](C)OC(=O)C[C@@H](O)C[C@@H](O)C[C@@H](O)C[C@@H](O)C[C@@H](O)C[C@@H]1O |

| SMILES | MIC [µg/mL] |
| --- | --- |
| C[C@@H]1[C@H](O)[C@@H](C)/C=C/C=C/C=C/C=C/C=C/C=C/C=C/[C@H](O[C@@H]2O[C@H](C)[C@@H](O)[C@H](N)[C@@H]2O)C[C@@H]2O[C@](O)(C[C@@H](O)C[C@@H](O)[C@H](O)CC[C@@H](O)C[C@@H](O)CC(=O)O[C@H]1C)C[C@H](O)[C@H]2C(=O)O [AMPHOTERICIN B] | 0.2 (≈ 0.216 µM) |
